Measurements from patent US10780090B2, “Heteroaryl compounds useful as inhibitors of SUMO activating enzyme” (Millennium Pharmaceuticals, Inc., priority 2014, dated 2020).

Target: recombinant human SAE enzyme (Homo sapiens (Human), UniProt Q9UBT2)
Experiment: SAE HTRF enzyme assay
Type: biochemical
Settings: for inhibition at 0.111 µM: read-out: Percent Inhibition
In short: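 First, recombinant human SAE (0.11 nM) transfers Sumo-Flag onto Ubc9-GST using 0.5 μM ATP for 105 min at 24° C. Next, EDTA-containing detection buffer with labelled anti-Flag and anti-GST antibodies is added for 2 h. Finally, FRET is quantified and percent inhibition or IC50 derived.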

[1] = SAE inhibition at compound concentration 0.111 μM
[2] = SAE inhibition, class symbols, legend in nM

recombinant human SAE enzyme, sequence (Q9UBT2 whole entry): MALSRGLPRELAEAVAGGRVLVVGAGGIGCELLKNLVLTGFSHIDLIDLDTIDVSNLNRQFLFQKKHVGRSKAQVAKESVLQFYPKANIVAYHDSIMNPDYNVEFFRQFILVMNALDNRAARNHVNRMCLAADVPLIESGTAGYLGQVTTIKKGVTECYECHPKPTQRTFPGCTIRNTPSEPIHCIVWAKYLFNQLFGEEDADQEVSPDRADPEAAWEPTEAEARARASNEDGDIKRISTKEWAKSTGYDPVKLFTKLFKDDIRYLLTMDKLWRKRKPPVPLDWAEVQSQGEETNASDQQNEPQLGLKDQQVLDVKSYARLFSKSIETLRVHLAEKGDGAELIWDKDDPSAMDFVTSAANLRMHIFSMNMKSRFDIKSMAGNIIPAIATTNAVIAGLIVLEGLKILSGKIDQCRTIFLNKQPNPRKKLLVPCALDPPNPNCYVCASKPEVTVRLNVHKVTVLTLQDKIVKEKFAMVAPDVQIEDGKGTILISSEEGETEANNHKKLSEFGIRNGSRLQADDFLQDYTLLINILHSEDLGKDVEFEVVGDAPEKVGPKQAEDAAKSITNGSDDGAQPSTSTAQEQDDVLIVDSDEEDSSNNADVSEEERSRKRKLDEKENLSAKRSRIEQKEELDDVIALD
recombinant human SAE enzyme, sequence (Q9UBE0 whole entry partner): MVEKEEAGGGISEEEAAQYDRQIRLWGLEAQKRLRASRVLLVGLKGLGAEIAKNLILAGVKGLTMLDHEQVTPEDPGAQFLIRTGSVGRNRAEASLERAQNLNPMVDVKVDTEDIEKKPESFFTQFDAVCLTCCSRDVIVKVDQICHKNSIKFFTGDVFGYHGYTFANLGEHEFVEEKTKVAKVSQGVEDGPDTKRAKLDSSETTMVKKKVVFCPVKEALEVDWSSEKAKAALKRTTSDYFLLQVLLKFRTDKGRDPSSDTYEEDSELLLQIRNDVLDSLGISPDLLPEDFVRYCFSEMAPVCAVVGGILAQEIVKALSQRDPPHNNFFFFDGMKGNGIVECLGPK

Row | Compound | inhibition at 0.111 µM (Concentration 0.111 μM) [%] | IC50 (class symbols A/B/C) [nM] | Percent Inhibition [1] [%] | IC50 [2] [nM] | Percent Inhibition (Concentration 0.111 μM)
1 | CN(C)Cc1sc(C(=O)c2cncnc2N[C@@H]2C[C@H](COS(N)(=O)=O)[C@@H](O)C2)cc1Cc1cccc(Cl)c1 [I-77, [(1R,2S,4R)-4-{[5-({4-(3-chlorobenzyl)-5-[(dimethylamino)methyl]-2-thienyl}carbonyl)pyrimidin-4-yl]amino}-2-hydroxycyclopentyl]methyl sulfamate] | 98 | < 10 |  |  | 
2 | NS(=O)(=O)OC[C@H]1C[C@@H](Nc2ncncc2C(=O)c2cc([C@H]3NCCc4ccccc43)cs2)[C@H](O)[C@@H]1O (mixture of isomers) [I-295, [(1R,2R,3S,4R)-2,3-dihydroxy-4-{[5-({4-[(1S)-1,2,3,4-tetrahydroisoquinolin-1-yl]-2-thienyl}carbonyl)pyrimidin-4-yl]amino}cyclopentyl]methyl sulfamate and [(1R,2R,3S,4R)-2,3-dihydroxy-4-{[5-({4-[(1R)-1,2,3,4-tetrahydroisoquinolin-1-yl]-2-thienyl}carbonyl)pyrimidin-4-yl]amino}cyclopentyl]methyl sulfamate] |  |  | 99 | < 10 | 
3 | C[C@](O)(c1cccc(Cl)c1)c1coc(C(=O)c2cncnc2N[C@@H]2C[C@H](COS(N)(=O)=O)[C@@H](O)C2)c1 (single isomer, unassigned) [I-30a, {(1R,2S,4R)-4-[(5-{4-[(1S)-1-(3-chlorophenyl)-1-hydroxyethyl]-2-furoyl}pyrimidin-4-yl)amino]-2-hydroxycyclopentyl}methyl sulfamate or {(1R,2S,4R)-4-[(5-{4-[(1R)-1-(3-chlorophenyl)-1-hydroxyethyl]-2-furoyl}pyrimidin-4-yl)amino]-2-hydroxycyclopentyl}methyl sulfamate] |  | < 10 |  |  | 100
4 | COCc1ccc(C(=O)c2cncnc2N[C@@H]2C[C@H](COS(N)(=O)=O)[C@@H](O)C2)o1 [I-212, [(1R,2S,4R)-2-hydroxy-4-({5-[5-(methoxymethyl)-2-furoyl]pyrimidin-4-yl}amino)cyclopentyl]methyl sulfamate] | 43 | 100 to 1000 |  |  | 
5 | Cc1sc(C(=O)c2cncnc2N[C@@H]2C[C@H](COS(N)(=O)=O)[C@@H](O)C2)cc1[C@@H]1OCCc2sc(C(F)(F)F)nc21 (mixture of isomers) [I-315, [(1R,2S,4R)-2-hydroxy-4-{[5-({5-methyl-4-[(4S)-2-(trifluoromethyl)-6,7-dihydro-4H-pyrano[3,4-d][1,3]thiazol-4-yl]-2-thienyl}carbonyl)pyrimidin-4-yl]amino}cyclopentyl]methyl sulfamate and [(1R,2S,4R)-2-hydroxy-4-{[5-({5-methyl-4-[(4R)-2-(trifluoromethyl)-6,7-dihydro-4H-pyrano[3,4-d][1,3]thiazol-4-yl]-2-thienyl}carbonyl)pyrimidin-4-yl]amino}cyclopentyl]methyl sulfamate] |  |  | 97 | < 10 | 
6 | CN(C)Cc1cn(Cc2csc(C(=O)c3cncnc3N[C@@H]3C[C@H](COS(N)(=O)=O)[C@@H](O)C3)c2)c2ccccc12 [I-221, {(1R,2S,4R)-4-[(5-{[4-({3-[(dimethylamino)methyl]-1H-indol-1-yl}methyl)-2-thienyl]carbonyl}pyrimidin-4-yl)amino]-2-hydroxycyclopentyl}methyl sulfamate] | 30 | 100 to 1000 |  |  | 
7 | COc1ccccc1CCc1csc(C(=O)c2cncnc2N[C@@H]2C[C@H](COS(N)(=O)=O)[C@@H](O)C2)c1 [I-183, [(1R,2S,4R)-2-Hydroxy-4-{[5-({4-[2-(2-methoxyphenyl)ethyl]-2-thienyl}carbonyl)pyrimidin-4-yl]amino}cyclopentyl]methyl sulfamate] | 82 | 10 to 100 |  |  | 
